Measured values as given in article PMC4490768 (Cellular signalling, 2011).

Target: T1, ALK2ca T283S (constitutively active ALK2) (Homo sapiens, UniProt Q04771, Q207D/T283S)
T1 sequence (Q04771 21-509 Q207D/T283S): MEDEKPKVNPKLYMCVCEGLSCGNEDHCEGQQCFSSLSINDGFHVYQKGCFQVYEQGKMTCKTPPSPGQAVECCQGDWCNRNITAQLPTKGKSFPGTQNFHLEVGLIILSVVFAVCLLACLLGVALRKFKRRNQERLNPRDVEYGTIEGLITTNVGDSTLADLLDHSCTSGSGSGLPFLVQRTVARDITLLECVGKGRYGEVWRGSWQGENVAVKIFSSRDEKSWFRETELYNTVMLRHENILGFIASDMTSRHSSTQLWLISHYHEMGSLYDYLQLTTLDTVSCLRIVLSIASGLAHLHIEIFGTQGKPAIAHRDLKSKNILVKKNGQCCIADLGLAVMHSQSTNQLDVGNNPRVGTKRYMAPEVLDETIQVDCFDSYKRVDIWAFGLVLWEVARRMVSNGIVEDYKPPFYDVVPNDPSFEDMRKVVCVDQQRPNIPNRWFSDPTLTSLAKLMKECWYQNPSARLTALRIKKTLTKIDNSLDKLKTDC
Experiment: BRE2-luc luciferase reporter in NIH-3T3 cells expressing ALK2ca T283S
Assay type: cell-based

EC50: 2500 nM
SMILES: NC(=O)c1ccc(-c2nc(-c3ccc4c(c3)OCO4)c(-c3ccccn3)[nH]2)cc1 [SB431542]
